Source: ChEMBL document CHEMBL5465560, “Selectivity Literature for EUbOPEN Chemogenomic Library” (2024)

Key:
[1] = Selectivity interaction (KinomeScan (DiscoverX)) EUB0000045b PKNB
[2] = target: Serine/threonine-protein kinase PAK 6 (Homo sapiens) (UniProt Q9NQU5); assay: Selectivity interaction (KinomeScan (DiscoverX)) EUB0001079a PAK6; settings: at 1 µM
[3] = target: T1, Activin receptor type-1 (Homo sapiens) (UniProt Q04771); assay: Selectivity interaction (KinomeScan (DiscoverX)) EUB0001079a ACVR1; settings: at 1 µM
T1 sequence (whole entry): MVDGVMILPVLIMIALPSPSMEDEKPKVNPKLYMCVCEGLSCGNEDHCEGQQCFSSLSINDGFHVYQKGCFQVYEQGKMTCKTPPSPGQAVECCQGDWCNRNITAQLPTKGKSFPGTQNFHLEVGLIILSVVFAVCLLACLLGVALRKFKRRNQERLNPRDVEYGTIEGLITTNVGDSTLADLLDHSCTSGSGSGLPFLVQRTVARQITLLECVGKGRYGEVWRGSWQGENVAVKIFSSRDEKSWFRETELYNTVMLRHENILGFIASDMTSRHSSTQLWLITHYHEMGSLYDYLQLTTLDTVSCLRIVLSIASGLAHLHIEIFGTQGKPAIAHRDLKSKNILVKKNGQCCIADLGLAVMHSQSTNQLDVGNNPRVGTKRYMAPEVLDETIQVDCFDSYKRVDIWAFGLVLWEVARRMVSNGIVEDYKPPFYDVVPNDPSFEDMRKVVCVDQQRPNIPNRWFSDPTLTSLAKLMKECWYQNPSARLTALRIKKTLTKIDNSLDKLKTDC

[4] = target: Platelet-derived growth factor receptor beta (Homo sapiens, UniProt P09619); assay: Selectivity interaction (KinomeScan (DiscoverX)) EUB0001619a PDGFRB; settings: at 1 µM
Platelet-derived growth factor receptor beta, sequence (P09619 whole entry): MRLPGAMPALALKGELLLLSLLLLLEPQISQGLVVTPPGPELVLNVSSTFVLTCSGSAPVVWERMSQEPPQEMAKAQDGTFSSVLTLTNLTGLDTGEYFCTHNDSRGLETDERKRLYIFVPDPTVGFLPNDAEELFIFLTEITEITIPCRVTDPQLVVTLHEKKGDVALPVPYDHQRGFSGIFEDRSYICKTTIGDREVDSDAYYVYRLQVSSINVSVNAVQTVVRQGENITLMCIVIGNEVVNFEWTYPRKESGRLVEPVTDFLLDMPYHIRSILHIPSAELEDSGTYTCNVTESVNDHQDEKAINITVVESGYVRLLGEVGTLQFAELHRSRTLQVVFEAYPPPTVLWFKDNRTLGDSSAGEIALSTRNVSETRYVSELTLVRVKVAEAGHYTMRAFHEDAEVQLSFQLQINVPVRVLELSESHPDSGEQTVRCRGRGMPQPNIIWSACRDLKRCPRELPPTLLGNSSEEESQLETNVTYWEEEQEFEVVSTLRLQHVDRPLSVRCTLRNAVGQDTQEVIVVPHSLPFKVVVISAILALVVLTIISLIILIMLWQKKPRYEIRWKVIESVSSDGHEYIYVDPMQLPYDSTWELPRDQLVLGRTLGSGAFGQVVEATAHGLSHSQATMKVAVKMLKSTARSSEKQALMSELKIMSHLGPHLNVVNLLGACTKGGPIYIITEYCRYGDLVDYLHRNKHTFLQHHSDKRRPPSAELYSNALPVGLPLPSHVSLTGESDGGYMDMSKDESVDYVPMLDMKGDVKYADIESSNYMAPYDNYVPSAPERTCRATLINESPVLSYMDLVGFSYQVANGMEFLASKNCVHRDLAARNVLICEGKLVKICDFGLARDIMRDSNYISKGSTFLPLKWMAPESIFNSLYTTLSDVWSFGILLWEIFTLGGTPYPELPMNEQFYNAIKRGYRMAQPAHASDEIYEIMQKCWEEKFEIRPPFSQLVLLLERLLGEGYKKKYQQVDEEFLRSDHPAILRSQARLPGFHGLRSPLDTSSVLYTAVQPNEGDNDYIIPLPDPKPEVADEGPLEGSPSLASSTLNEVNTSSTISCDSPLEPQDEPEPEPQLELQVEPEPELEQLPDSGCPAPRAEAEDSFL

[5] = target: T2, Myotonin-protein kinase (Homo sapiens) (UniProt Q09013); assay: Selectivity interaction (KinomeScan (DiscoverX)) EUB0000618a DMPK; settings: at 10 µM
T2 sequence (whole entry): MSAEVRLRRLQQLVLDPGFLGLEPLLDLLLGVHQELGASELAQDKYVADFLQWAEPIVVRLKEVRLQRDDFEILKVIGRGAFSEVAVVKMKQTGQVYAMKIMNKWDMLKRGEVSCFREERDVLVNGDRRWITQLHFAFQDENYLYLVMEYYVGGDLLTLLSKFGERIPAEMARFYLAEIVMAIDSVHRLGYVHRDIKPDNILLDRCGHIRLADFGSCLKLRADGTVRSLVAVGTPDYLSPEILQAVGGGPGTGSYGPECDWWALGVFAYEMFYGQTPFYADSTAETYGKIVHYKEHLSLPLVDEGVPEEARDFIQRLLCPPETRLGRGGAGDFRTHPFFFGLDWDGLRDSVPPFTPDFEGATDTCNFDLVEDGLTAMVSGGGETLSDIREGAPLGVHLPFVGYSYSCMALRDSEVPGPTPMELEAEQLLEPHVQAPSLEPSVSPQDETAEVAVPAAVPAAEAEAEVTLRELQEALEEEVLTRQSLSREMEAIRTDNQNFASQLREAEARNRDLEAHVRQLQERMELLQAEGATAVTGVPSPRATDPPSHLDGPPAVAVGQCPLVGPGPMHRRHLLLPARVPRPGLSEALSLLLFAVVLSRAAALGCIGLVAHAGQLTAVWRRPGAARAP

[6] = target: T3, Mitogen-activated protein kinase kinase kinase 3 (Homo sapiens) (UniProt Q99759); assay: Selectivity interaction (ActivX KiNativ screen (kinase selectivity in THP-1 cell lysates)) EUB0000639a MAP3K3; format: subcellular; settings: lysate, at 0.04 µM
T3 sequence (whole entry): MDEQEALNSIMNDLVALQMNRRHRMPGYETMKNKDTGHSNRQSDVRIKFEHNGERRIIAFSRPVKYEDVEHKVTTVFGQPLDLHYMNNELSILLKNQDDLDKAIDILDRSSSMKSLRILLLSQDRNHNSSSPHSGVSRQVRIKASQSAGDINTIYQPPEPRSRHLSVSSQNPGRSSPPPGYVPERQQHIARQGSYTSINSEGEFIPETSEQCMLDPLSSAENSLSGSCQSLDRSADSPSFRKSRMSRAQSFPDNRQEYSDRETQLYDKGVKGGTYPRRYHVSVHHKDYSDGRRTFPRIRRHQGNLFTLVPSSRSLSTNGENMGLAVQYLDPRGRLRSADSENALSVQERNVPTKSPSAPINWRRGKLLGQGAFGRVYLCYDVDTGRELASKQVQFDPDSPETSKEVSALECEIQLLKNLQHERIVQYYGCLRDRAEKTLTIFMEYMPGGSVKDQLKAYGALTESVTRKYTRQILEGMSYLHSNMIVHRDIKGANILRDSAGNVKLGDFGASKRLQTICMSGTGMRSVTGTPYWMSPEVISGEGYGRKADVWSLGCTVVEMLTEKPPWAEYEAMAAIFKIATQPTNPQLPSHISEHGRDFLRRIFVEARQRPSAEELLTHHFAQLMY

[7] = target: T4, Aurora kinase A (Homo sapiens) (UniProt O14965); assay: Selectivity interaction (KinomeScan (DiscoverX)) EUB0000655a STK6; settings: at 10 µM
T4 sequence (whole entry): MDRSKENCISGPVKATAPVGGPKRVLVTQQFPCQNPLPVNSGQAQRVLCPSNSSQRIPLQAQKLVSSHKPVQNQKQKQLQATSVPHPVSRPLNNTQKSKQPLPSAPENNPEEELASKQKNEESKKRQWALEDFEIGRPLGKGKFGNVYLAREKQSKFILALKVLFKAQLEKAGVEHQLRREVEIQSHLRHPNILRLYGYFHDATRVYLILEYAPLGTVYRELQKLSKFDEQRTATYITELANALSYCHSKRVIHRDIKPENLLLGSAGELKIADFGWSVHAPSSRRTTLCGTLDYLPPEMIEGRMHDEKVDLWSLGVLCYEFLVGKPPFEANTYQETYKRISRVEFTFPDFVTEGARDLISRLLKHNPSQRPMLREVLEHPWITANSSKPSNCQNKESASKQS

[8] = target: Calcium/calmodulin-dependent protein kinase type 1D (Homo sapiens) (UniProt Q8IU85); assay: Selectivity interaction (KinomeScan (DiscoverX)) EUB0000655a CAMK1D; settings: at 10 µM
Calcium/calmodulin-dependent protein kinase type 1D (Homo sapiens), sequence (Q8IU85 whole entry, looked up): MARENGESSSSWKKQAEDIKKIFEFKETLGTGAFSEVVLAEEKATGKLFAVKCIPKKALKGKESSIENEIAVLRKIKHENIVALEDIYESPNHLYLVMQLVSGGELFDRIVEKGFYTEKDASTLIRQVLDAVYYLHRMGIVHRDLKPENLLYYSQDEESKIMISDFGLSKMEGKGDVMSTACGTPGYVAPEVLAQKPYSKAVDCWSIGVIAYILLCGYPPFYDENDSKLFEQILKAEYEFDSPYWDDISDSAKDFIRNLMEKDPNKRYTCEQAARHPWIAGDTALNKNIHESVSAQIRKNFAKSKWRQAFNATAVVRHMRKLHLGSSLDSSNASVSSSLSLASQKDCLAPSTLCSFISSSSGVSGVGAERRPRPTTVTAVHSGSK

Serine/threonine-protein kinase PAK 6 (Homo sapiens), sequence (Q9NQU5 whole entry, looked up): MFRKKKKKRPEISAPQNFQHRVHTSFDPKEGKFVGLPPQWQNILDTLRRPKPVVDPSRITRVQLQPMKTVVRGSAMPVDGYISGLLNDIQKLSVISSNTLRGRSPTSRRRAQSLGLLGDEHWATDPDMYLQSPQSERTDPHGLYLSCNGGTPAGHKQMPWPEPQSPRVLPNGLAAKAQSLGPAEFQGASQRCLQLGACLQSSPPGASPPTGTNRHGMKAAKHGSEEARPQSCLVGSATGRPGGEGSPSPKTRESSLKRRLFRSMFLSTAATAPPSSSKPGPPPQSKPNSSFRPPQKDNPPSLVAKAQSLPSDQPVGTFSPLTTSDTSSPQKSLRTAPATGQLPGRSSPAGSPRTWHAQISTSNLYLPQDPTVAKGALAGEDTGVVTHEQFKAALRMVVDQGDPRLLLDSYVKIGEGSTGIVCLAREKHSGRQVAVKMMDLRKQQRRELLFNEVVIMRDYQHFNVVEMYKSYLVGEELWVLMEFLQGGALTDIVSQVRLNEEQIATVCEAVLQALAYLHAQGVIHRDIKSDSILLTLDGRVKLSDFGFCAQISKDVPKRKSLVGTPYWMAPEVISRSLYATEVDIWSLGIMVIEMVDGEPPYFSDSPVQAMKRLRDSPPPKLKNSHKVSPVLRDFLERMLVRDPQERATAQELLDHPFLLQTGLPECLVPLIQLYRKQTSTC

`C=CC(=O)Nc1cc(-n2c(=O)ccc3cnc4ccc(-c5ccc(NS(C)(=O)=O)cc5)cc4c32)ccc1C` showed a % of control ([1]; at 1 µM) of 41% and a % of control ([1]; at 10 µM) of 90%.

In the case of `Nc1cnc(N2CCc3cc(S(=O)(=O)Nc4c(F)cc(Cl)cc4F)cc(N4CCCC4=O)c32)nc1` [TP-020n], the % of control [2] is reported as 100% and the % of control [3] is reported as 100%.

With `N#Cc1cccc(-c2c[nH]c3ncnc(N4CCOCC4)c23)c1` the % of control [4] was 90%.

`O[C@H]1CC[C@H](Nc2ncc3nc(Nc4c(F)cc(F)cc4F)n([C@H]4CCOC4)c3n2)CC1` showed a % of control [5] of 100%.

For `CC[C@@H]1[C@H](F)C(=O)N[C@@H]1COc1nccc2cc(C(N)=O)c(OC)cc12` [ZIMLOVISERTIB], the % of inhibition [6] was 8.3%.

Work on `CN(C)CCOc1ccc(-c2nc(-c3ccncc3)c(-c3ccc4c(c3)CC/C4=N\O)[nH]2)cc1` yielded a % of control [7] of 90% and a % of control [8] of 100%.
